# From article PMC4176347, “Zinc finger oxidation of Fpg/Nei DNA glycosylases by 2-thioxanthine: biochemical and X-ray structural characterization” (Nucleic Acids Research, 2014)
# Tests used:
# [1] = target: T1, hNEIL2 (Homo sapiens, UniProt Q969S2); test: PAR assay, 2TX-induced Zn2+ release, A500; type: binding; conditions: free enzyme without DNA; 5 μM enzyme, 10 mM 2TX, 100 μM PAR, 25 mM Hepes/KOH pH 7.5, 70 mM KCl, 8% DMSO, room temperature; covalent
# T1 construct: gene NEIL2; 6His-hNEIL2 fusion, vector pPR363, expressed in E. coli BL21CodonsPlus; CHC2-type zinc finger
# T1 sequence (Q969S2 1-332): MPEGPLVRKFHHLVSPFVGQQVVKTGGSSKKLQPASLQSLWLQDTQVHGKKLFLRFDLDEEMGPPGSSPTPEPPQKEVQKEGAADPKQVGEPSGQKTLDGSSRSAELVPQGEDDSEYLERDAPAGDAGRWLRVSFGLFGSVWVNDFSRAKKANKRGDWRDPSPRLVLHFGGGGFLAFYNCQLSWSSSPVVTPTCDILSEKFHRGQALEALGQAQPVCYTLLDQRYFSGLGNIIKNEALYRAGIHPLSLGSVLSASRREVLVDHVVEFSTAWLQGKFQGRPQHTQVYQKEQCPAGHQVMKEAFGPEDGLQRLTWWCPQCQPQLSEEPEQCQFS
# Excerpt: PAR assay, 2TX-induced Zn2+ release, A500 on hNEIL2
# [2] = target: T2, EcNei (Escherichia coli, UniProt P50465); test: Hyd-DNA glycosylase assay, […]-labelled 24-mer, Urea-PAGE; type: biochemical; conditions: Hyd:G double-stranded DNA, 30 min, 37°C, 8% DMSO
# T2 construct: gene nei; full-length, C-terminal 6His-tag, pET22b derivative, expressed in E. coli BL21(DE3)
# [3] = target: T3, LlFpg (Lactococcus cremoris, UniProt P42371); test: X-ray crystal structures of LlFpg/DNA treated with 2TX ([…] Å THF-DNA; […] Å Bz-cFapyG-DNA); type: binding; conditions: covalent disulfide to C248 (THF-DNA) or C268 (Bz-cFapyG-DNA); stacks on W179; outside active site; zinc lost
# T3 construct: gene mutM; full-length recombinant from pFlag-CTC-WT-LlFpg, E. coli BH540 (fpg mutY) host, purified to homogeneity; zinc finger C245/C248/C265/C268
# T3 sequence (P42371 2-273): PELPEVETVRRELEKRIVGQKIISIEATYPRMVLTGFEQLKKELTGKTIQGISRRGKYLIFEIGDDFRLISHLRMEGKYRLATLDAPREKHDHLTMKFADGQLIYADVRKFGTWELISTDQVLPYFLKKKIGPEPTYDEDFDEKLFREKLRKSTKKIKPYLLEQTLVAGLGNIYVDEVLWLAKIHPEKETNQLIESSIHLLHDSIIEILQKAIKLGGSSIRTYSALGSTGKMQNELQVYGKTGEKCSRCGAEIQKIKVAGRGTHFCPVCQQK
# [4] = target: T2, EcNei; test: PAR assay, 2TX-induced Zn2+ release, A500; type: binding; conditions: free enzyme without DNA; 5 μM enzyme, 10 mM 2TX, 100 μM PAR, 25 mM Hepes/KOH pH 7.5, 70 mM KCl, 8% DMSO, room temperature; covalent
# Excerpt: PAR assay, 2TX-induced Zn2+ release, A500 on EcNei
# [5] = target: T3, LlFpg; test: PAR assay, 2TX-induced Zn2+ release, A500; type: binding; conditions: free enzyme without DNA; 5 μM enzyme, 10 mM 2TX, 100 μM PAR, 25 mM Hepes/KOH pH 7.5, 70 mM KCl, 8% DMSO, room temperature; covalent
# Excerpt: PAR assay, 2TX-induced Zn2+ release, A500 on LlFpg
# [6] = target: T1, hNEIL2; test: Hyd-DNA glycosylase assay, […]-labelled 24-mer, Urea-PAGE; type: biochemical; conditions: Hyd single-stranded DNA, 30 min, 37°C, 8% DMSO
# [7] = target: T3, LlFpg; test: 8-oxoG-DNA glycosylase assay, […]-labelled 24-mer, gel; type: biochemical; conditions: 5 nM enzyme, 25 nM 8-oxoG-DNA, 0-250 μM 2TX, 30 min, 37°C, 8% DMSO
# [8] = target: T4, LlFpg WT (Lactococcus lactis) (UniProt P42371); test: EMSA; conditions: apparent Kd, N at position 7 of strand 1 = tetrahydrofuran (THF) abasic site analogue, opposite C, EMSA: 0.1 nM 32P-labelled 14-mer THF-DNA, 0-16 nM LlFpg (2 nM in 2TX assays), 20 min at 4 C / on ice, with or without 8% DMSO, buffer and pH as in cited …
# T4 sequence: T3 sequence (P42371 2-273)
# T2 sequence (P50465 2-263): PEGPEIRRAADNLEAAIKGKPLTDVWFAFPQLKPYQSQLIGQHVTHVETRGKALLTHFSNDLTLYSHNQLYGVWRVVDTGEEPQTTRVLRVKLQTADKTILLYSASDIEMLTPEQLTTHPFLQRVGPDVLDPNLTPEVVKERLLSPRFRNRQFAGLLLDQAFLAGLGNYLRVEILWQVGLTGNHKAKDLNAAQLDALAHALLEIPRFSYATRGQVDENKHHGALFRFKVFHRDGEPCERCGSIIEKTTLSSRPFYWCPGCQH
Compound,kobs (min^-1)^a / - DNA [1] [min⁻¹],"Hyd-DNA glycosylase assay, 32P-labelled 24-mer, Urea-PAGE [2]",X-ray crystal structures of LlFpg/DNA treated with 2TX (2.4 Å THF-DNA); 2.1 Å Bz- [3],kobs (min^-1)^a / - DNA [4] [min⁻¹],kobs (min^-1)^a / - DNA [5] [min⁻¹],"Hyd-DNA glycosylase assay, 32P-labelled 24-mer, Urea-PAGE [6]","8-oxoG-DNA glycosylase assay, 32P-labelled 24-mer, gel [7]",Kd ([8]; 8% DMSO) [nM],Kd ([8]; without DMSO) [nM]
"O=c1[nH]c(=S)[nH]c2nc[nH]c12 [2TX, 2-thioxanthine]",0.180 ± 0.002,The Hyd-DNA glycosylase activity of EcNei and hNEIL2 were also strongly inhibited by 2TX,a 2TX molecule covalently bound to C268 was easily modeled in the electron density map,0.296 ± 0.001,0.073 ± 0.001,The Hyd-DNA glycosylase activity of EcNei and hNEIL2 were also strongly inhibited by 2TX,excision of 8-oxoG from 24-mer DNA duplex (Supplementary Figure S2) by LlFpg was inhibited,,
CTCTTTNTTTCTCG / GCGAGAAACAAAGA [14-mer THF-DNA],,,,,,,,3,10
